Measurements published in PMC6804264, “Enlarged Pore Size Chiral Mesoporous Silica Nanoparticles Loaded Poorly Water-Soluble Drug Perform Superior Delivery Effect” (Molecules, 2019).

How the values were obtained:
[1] = stated in the introduction, no reference given; cited from earlier work
[2] = In vivo pharmacokinetics after oral (intragastric) administration; settings: male, Wistar, rat, rats, 40 mg/kg NMS, plasma
Protocol: 9 Male Wistar rats weighing 200 ± 20 g were randomly split into three groups (A group, NMS; B group, NMS/CMSN; C group, NMS/E-CMSN) and fasted for 12 h but given free access to water prior to the experiment. The three samples were suspended in 1.5 mL normal saline with the drug dose of 40 mg/kg and then orally administered (intragastric administration) to rats. Blood media (0.5 mL) of each animal was collected via the suborbital vein at different time intervals after administration and immediately centrifuged at 8000 rpm for 10 min to collect plasma. Subsequently, the obtained plasma was then stored at […] until analysis. 200 μL plasma sample was mixed with 80 μL of an internal standard solution (0.5 mg/mL) and 400 μL acetonitrile. The mixture was vortexed for 2 min. After centrifugation at 10,000 rpm for 5 min, the supernatant of each sample (20 μL) was subjected to HPLC analysis. The working conditions for HPLC analysis included: Mobile phase: methanol: pH 7.3 potassium dihydrogen phosphate buffer (65:35, v/v); Column temperature: 30 °C; Analysis wavelength: 370 nm; Flow rate: 1.0 mL/min.

[3] = tested on: right hind ankle swelling after carrageenan injection into the paw; assay: Anti-inflammatory pharmacodynamics (carrageenan paw model, right hind ankle perimeter); type: in vivo, male Sprague–Dawley rats; settings: rats, oral, 40 mg/kg NMS
Protocol: Right hind ankle perimeter of rats was ascertained to study the anti-inflammatory biological effect of […] or NMS/E-CMSN. Twelve male Sprague-Dawley rats (200 ± 20 g) were separated into four groups (Group A: Normal saline; Group B: NMS; Group C: NMS/CMSN; Group D: NMS/E-CMSN) and then fasted overnight before experiment. The rats in Group B, Group C and Group D were administered orally with corresponding nanoparticles containing 40 mg/kg NMS, while the rats in Group A were administered orally with normal saline. Afterwards, the perimeters of right hind ankles were ascertained. After half an hour, 0.1 mL 1% carrageenan solution was injected subcutaneously into the paw of each rat. […] Then, the following parameters were calculated. (2) Repressionrate(%)=([…]0)positive (3) Swelling rate(%)=Ct-C0/C0×100 where C0 denotes original perimeter of right hind ankle; Ct is the measured perimeter of right hind ankle.

[4] = Contact angle measurement (wetting property); type: physicochemical; settings: pH 6.8 PBS; pH 6.8 PBS including trysin (Figure 6)
Protocol: To study the wettability differences after loading NMS into the two carriers, dynamic contact angle measurement was performed using JCY series (Shanghai, China). The working conditions covered: Automatic contact angle meter model, pressurized tablet of sample, as well as a drop of dissolution medium (2 μL). The measurement was started when dissolution medium dropped onto the tablet.

AUC(0-t) ([2]; n = 3): 199 ± 66.6 µg·h/mL
Cmax ([2]; n = 3): 25400 ± 9680 ng/mL
Tmax ([2]; n = 3): 4 h
MRT last ([2]; n = 3, read-out: MRT(0–t)): 5.73 ± 0.354 h
half-life ([2]; n = 3, read-out: t1/2z (converted)): 5.08 ± 2.81 h
wetting property / contact angle [4]: poor water wetting property
SMILES: CS(=O)(=O)Nc1ccc([N+](=O)[O-])cc1Oc1ccccc1 [NMS, nimesulide]
LogP value [1]: 3.79
time at which anti-inflammatory function started [3]: 0.5 h
anti-inflammatory effect according to swelling rate profiles ([3]; 0.5-4 h): exerted anti-inflammatory pharmacodynamics effect
